Target: T1, human D2 receptor (Homo sapiens, UniProt P14416)
T1 construct: expressed in transfected cells; cDNA from Origene clones TC308892 and SC123573
Experiment: D2 receptor radioligand binding assay (membranes of HEK-293 cells expressing human D2 receptor)
Details: radioligand displacement, HEK293 membranes, 37° C. for 120 minutes; read-out: Affinity Score (IC50 values for D2 on a scale of 1 through 5)
Outline: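 Membranes from HEK-293 cells stably expressing human D2S or D2L, 10 μg protein per well. Compounds incubated with radioligand (KD 0.09 nM) in Tris buffer pH 7.4 with 0.025% BSA, 120 minutes at 37° C. Filtration and scintillation counting; Ki by Cheng–Prusoff.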

T1 sequence (P14416 whole entry): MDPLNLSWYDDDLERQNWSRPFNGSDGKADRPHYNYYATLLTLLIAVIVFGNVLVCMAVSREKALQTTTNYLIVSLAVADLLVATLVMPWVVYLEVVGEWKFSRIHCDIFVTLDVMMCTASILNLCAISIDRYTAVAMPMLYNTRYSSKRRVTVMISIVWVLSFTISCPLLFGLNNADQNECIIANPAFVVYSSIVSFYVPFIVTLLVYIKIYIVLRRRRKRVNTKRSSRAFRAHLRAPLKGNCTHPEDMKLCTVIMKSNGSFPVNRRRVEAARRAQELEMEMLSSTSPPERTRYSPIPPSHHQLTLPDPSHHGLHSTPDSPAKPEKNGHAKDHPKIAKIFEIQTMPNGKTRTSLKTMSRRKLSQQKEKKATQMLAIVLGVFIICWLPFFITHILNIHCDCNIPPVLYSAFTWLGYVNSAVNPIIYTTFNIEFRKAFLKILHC

For `COC(=O)c1cccc(CN2CN(c3ccccc3)C3(CCN(CCCc4c[nH]c5ccccc45)CC3)C2=O)c1` [Compound 57, methyl 3-((8-(3-(1H-indol-3-yl)propyl)-4-oxo-1-phenyl-1,3,8-triazaspiro[4.5]decan-3-yl)methyl)benzoate], the IC50 was < 10 nM.

Source: patent US9156840B2, “D2 antagonists, methods of synthesis and methods of use” (ALTOS THERAPEUTICS, LLC, priority 2010, dated 2015)
